Experiments:
[1] = system: stem cells from human exfoliated deciduous teeth (SHED1); assay: Cell cytotoxic test, stem cells from human exfoliated deciduous teeth; conditions: IC50 as silver concentration
[2] = system: human gingival fibroblast cells (HGF-1); assay: Cell cytotoxic test, human gingival fibroblast cells; conditions: HGF-1 cells; IC50 as silver concentration

SMILES: C1N2CN3CN1CP(C2)C3.C1N2CN3CN1CP(C2)C3.[Ag+].[F-] [SCF, [Ag(1,3,5-triaza-7-phosphaadamantane)2]F]
- IC50 against SHED1 (cell cytotoxicity) [1]: 34.54±5.09 ppm
- IC50 against HGF-1 (cell cytotoxicity) [2]: 43.98±12.80 ppm
